Earlier results in the CATMoS acute toxicity set (Mansouri et al. 2021).
Several values for one entry are separate records, joined by “and”; a condition that tells them apart may be missing. Equal entries are not always repeated.

Assay: rat acute oral toxicity
Settings: in vivo

| Structure (SMILES) | LD50 |
| --- | --- |
| CCCCCCCCCCOc1c(OC)cc(C(N)=O)cc1OC | 1650 mg/kg |
| COc1cccc(O)c1 | 597 mg/kg |
| CC(=CC(O)(C(F)(F)F)C(F)(F)F)CC(O)(C(F)(F)F)C(F)(F)F | 18 mg/kg |
| CCCCC(C)(C)O[Si](OC(C)(C)CCCC)(OC(C)(C)CCCC)OC(C)(C)CCCC | 60300 mg/kg |
| CC1(C)CN(c2ccccc2)NC1=O | 30 mg/kg |
| CC1=C(C)C(=O)C(C(CCCCCC(=O)O)c2ccccc2)=C(C)C1=O (racemic) | 3750 mg/kg |
| CCCC(=O)CCC | 3730 mg/kg |
| CC(C)=NNC(=O)CSc1cc(Oc2ccc(F)cc2)ncn1 | 380 mg/kg |
| CCCCCCCCCCCCCCCC[N+](C)(C)CC | 500 mg/kg |
| CC(C)(OOC(C)(C)c1ccccc1)c1ccccc1 | 4100 mg/kg |
| O=C1CC=C(O)N=N1 | 3900 mg/kg |
| Cc1ccc2oc(=O)ccc2c1 | 1680 mg/kg |
| ClCC(Cl)=C(Cl)C(Cl)Cl | 472 mg/kg |
| CCCC(C)CCOC(=O)c1ccccc1C(=O)OCCC(C)CCC (centres undefined) | 35500 mg/kg |
| CC1C(=O)OC2CCN3CC=C(COC(=O)C(C)(O)C1(C)O)C23 (centres undefined) | 45.5 mg/kg |
| FC(F)(F)c1nc2ccc(-c3ccccc3)cc2[nH]1 | 69 mg/kg |
| Cn1c2c(c3ccccc31)CCN(CCCN1CCN(c3ccccc3)CC1)C2=O | 650 mg/kg |
| CN(C)Cc1ccccc1 | 265 mg/kg |
| CNS(=O)(=O)c1cc(Cl)c(Cl)cc1Cl | 5100 mg/kg |
| N=C(S)NN=Nc1ccc(Cl)c(Cl)c1 | 1 mg/kg |
| CSC(C)=NOC(=O)N(C)SSN(C)C(=O)ON=C(C)SC | 190 mg/kg |
| CCOP(=S)(CCl)Sc1ccc(C)cc1 (centres undefined) | 336 mg/kg |
| C=CCC1=C(C)[C@@H](OC(=O)[C@@H]2[C@@H](C=C(C)C)C2(C)C)CC1=O | 430 mg/kg |

| Structure (SMILES) | LD50 |
| --- | --- |
| CN1CC(CC#N)CC2c3cccc4[nH]c(Cl)c(c34)CC21 (centres undefined) | 290 mg/kg |
| COP(=S)(Oc1ccc([N+](=O)[O-])cc1)OC(C)C (centres undefined) | 5 mg/kg |
| C/N=N/Nc1ccccc1 | 420 mg/kg |
| Nc1nc2c(Cl)cccc2o1 | 500 mg/kg |
| COc1c(O)cc(Cl)c(Cl)c1Cl | 2980 mg/kg |
| CCC1(CCl)COC1 | 570 mg/kg |
| Nc1cccc(C(O)CNC2CC2)c1 (centres undefined) | 3250 mg/kg |
| CC(C)N(Cc1ccccc1)C(=O)C(C)(C)C | 6000 mg/kg |
| COC(=O)c1cc(C(=O)OC)cc([N+](=O)[O-])c1 | 10000 mg/kg |
| CC(CN(C)C)C(C)(O)Cc1ccc(Cl)cc1 (centres undefined) | 802 mg/kg |
| NS(=O)(=O)CCl | 6050 mg/kg |
| CCCCOCCOCCOCCCC | 3900 mg/kg |
| CCCCC(CC)CN(CCO)CC(CC)CCCC (centres undefined) | 4920 mg/kg |
| COC(C)CC(OC)OC (centres undefined) | 1480 mg/kg |
| COP(=O)(OC)OC(=C(Cl)Cl)c1ccc(Cl)cc1Cl | 109 mg/kg |
| COP(=O)(OC)Oc1ccc([N+](=O)[O-])c(C)c1 | 24 mg/kg |
| CC(C)CCOC(=S)S | 765 mg/kg |
| CC/C=C\CC=O | 1560 mg/kg |
| N#CCCN1CC=C(c2cccc(C(F)(F)F)c2)CC1 | 515 mg/kg |
| CCSSCC | 2030 mg/kg |
| O=[N+]([O-])c1cc2c(ccc3ccccc32)o1 | 439 mg/kg |
| CCOC(C1=NCCCN1)c1cccc(F)c1 (centres undefined) | 1000 mg/kg |
| CCOC(=O)Nc1ccc2c(c1)N(C(=O)CCN1CCOCC1)c1ccccc1CC2 | 623 mg/kg |

| Structure (SMILES) | LD50 |
| --- | --- |
| COC(=O)c1c(C(F)F)nc(C(F)(F)F)c(C(=O)OC)c1CC(C)C | 1420 mg/kg |
| CCCCCCC[N+](CC)(CC)CCCCc1ccc(Cl)cc1 | 456 mg/kg |
| CC(=O)Oc1cc(C(F)(F)F)ccc1C(=O)O | 402 mg/kg |
| N=C(N)NC(=O)Cc1c(Cl)cccc1Cl | 142 mg/kg |
| FC(F)(F)c1ccc(Cl)c(Cl)c1 | 1150 mg/kg |
| O=C1NCCN1c1ncc([N+](=O)[O-])s1 | 900 mg/kg |
| CCCCCCCCCCCC[N+](C)(C)Cc1ccc(CC)cc1 | 700 mg/kg |
| ClCC(Cl)=C(Cl)Cl | 350 mg/kg |
| CCN(CC)CCOC(=O)c1ccc(NCc2c(CO)cnc(C)c2O)cc1 | 5900 mg/kg |
| CCCC(C)C1(CC)C(=O)N=C(S)NC1=O (centres undefined) | 117 mg/kg |
| C[C@H]1O[C@H](O[C@H]2[C@H](O)[C@@H](O)[C@@H](O)[C@H](O)[C@@H]2O)[C@@H](N)C[C@@H]1NC(=N)C(=O)O | 22000 mg/kg and 11400 mg/kg |
| CNC(=O)Oc1ccc(O)c2ccccc12 | 1190 mg/kg |
| ClC(Cl)(Br)CBr | 205 mg/kg |
| O=[N+]([O-])c1cc(I)c(O)c(I)c1 | 170 mg/kg |
| CN1CCN(C(=O)N/N=C/c2ccc([N+](=O)[O-])o2)CC1 | 750 mg/kg |
| CN(C)C(O)=Nc1ccc(-n2nc(C(C)(C)C)oc2=O)c(Cl)c1 | 1000 mg/kg |
| O=C1c2c(O)ccc(O)c2C(=O)c2c(NCCNCCO)ccc(NCCNCCO)c21 | 682 mg/kg |
| CCOP(=S)(N=C1SCCS1)OCC | 14 mg/kg |
| Cc1ccc2ccc(=O)oc2c1 | 3800 mg/kg |
| O=C(O)Cc1ccccc1Oc1ccc(Cl)cc1Cl | 2280 mg/kg |
| CN(C)N=Nc1nc[nH]c1C(N)=O | 2150 mg/kg |
| Nc1ccc(Oc2ccc(C(c3ccc(Oc4ccc(N)cc4)cc3)(C(F)(F)F)C(F)(F)F)cc2)cc1 | 1340 mg/kg |
| ClC1=C(Cl)C2(Cl)C3CC(Cl)(Cl)CC3C1(Cl)C2(Cl)Cl (centres undefined) | 500 mg/kg |
